Source: patent publication US6001882A (priority 1997, dated 1999)
“And” between values parts separate entries of the source, which are not always exact repeats. Equal values may be shown once. Read-outs that look alike come from different tables or passages of the source.

Legend:
[1] = system: PBMC from a patient to whom 8-MOP had been administered; assay: ConA-induced proliferation of PBMC from a patient to whom 8-MOP had been administered, visible light; format: cell-based, human; details: 20 min
Procedure: PBMC from a patient to whom 8-MOP had been administered were illuminated for 20 minutes using the bank of visible fluorescent lights used in the experiments described in this example. Proliferation of these cells in response to ConA was measured.

[2] = system: PBMC obtained from a normal human subject; assay: Induction of apoptosis in normal PBMC, TUNEL assay (Example 3); format: cell-based; details: for percentage of PBMC which underwent apoptosis: Normal, 18 h; for capability of inducing apoptosis: normal leukocytes, visible light
[3] = system: transformed ("EBV") PBMC; assay: Lymphocyte proliferation (3H-TdR incorporation), EBV-transformed PBMC; format: cell-based, human; details: for IC50: read-out: IC50 of cell proliferation; for ability to inhibit proliferation, 2 vs 1 J/cm^2: UV-A 2 J/cm^2 relative to 1 J/cm^2; for effect of UV-A on ability to inhibit proliferation: UV-A vs none; for effect of visible light on ability to inhibit proliferation: visible light vs none
Text: In two of the types of lymphocytes, the mitogen, ConA, was used to induce proliferation, as described (Fox et al., 1993, Cell. Immunol. 150:45-58). The third type of lymphocytes used in this example proliferated actively in vitro without the need for mitogenic stimulation. The three types of lymphocytes which were used in this example were: PBMC obtained from a normal human subject and stimulated with ConA; PBMC, including malignant CD4+ T-lymphocytes, obtained from a human subject having CTCL and stimulated with ConA; and PBMC obtained from a normal human subject, which PBMC were exposed to Epstein-Barr virus (EBV) after being obtained from the subject, to produce transformed lymphocytes. It is known that EBV-transformed B-lymphocytes proliferate actively in vitro (Polack, 1996, Proc. Natl. Acad. Sci. U.S.A. 93:10411-10416; Longnecker, 1994, Leukemia 8:546-550).
Peripheral blood mononuclear cells (PBMC) were obtained by separating them from whole blood, using Ficoll-Paque separation techniques and media (Boyum, 1964, Nature 793-794). After they were obtained, PBMC were resuspended in RPMI 1640 medium, which comprised 10% (v/v) fetal bovine serum (GIBCO, Grand Island, N.Y.), and were distributed into the wells of 96-well microtiter plates. PBMC transformed using EBV were made as described (Neitzel, 1986, Hum. Gen. 73:320-326)
This stock solution stored at 4° C. in the dark. A stock solution comprising 462.5 μM 8-methoxypsoralen (8-MOP) was prepared in 2% (v/v) benzyl alcohol. 8-MOP was obtained from Sigma (St. Louis, Mo.).
In cultures of transformed leukocytes in which 8-MOP was used, the concentrations of 8-MOP which were used were 92.5 μM, 18.5 μM, 3.7 μM, 0.74 μM, 0.15 μM, and 0.030 μM. Thereafter, ConA was then added to preselected wells to achieve a final concentration of 10 μg/ml of ConA in those wells.
Following preparation of the microtiter culture plates, preselected plates were illuminated with fluorescent visible light for 10-30 minutes, using four fluorescent bulbs (type F15T8CW, TFC Inc., Taiwan) spaced at a distance of 9 cm above the plates. Other preselected plates were illuminated with 0.5-2 Joules per square centimeter UV-A light using a UV-A light box containing 8 UVAR 06-91 bulbs. Still other preselected plates were not exposed to light. The covers of plates which were exposed to light were left in place during illumination.
Following illumination, plates which had been illuminated were placed into a dark incubator which was maintained at 37° C. Non-illuminated plates were placed into the incubator immediately after preparation. All plates were incubated for seventy-two hours. During the final eighteen hours of incubation, tritiated thymidine (^3 H-TdR) was added to each well of each plate. No extraordinary precautions were used to prevent light exposure during the addition of ^3 H-TdR.
Lymphocyte proliferation was assessed by measuring the extent of incorporation of ^3 H-TdR into newly synthesized DNA within the cells at the end of the seventy-two hour incubation period, as described (Fox, 1993, Cell. Immunol. 150:45-58).

[4] = photoreaction; cited from earlier work
[5] = system: leukemia cells; details: cited from earlier work
[6] = cited from earlier work
[7] = Absorbance spectrum / photoactivation wavelength; format: physicochemical; details: 20 μM hypericin in phosphate-buffered saline
Text: Absorbance maxima which were observed included maxima at 327 nm, 563 nm, and 603 nm.

[8] = system: leukocytes; details: photoactivated; cited from earlier work
[9] = system: glioma cells; details: in vitro; cited from earlier work
[10] = system: protein kinase; details: cited from earlier work
[11] = system: enveloped virus; details: hypericin photoactivated prior to treatment of virus; cited from earlier work
[12] = system: viruses; details: photoactivated; in vitro; cited from earlier work
[13] = system: xenografted carcinoma cells; details: intraperitoneal; local illumination of skin; cited from earlier work
[14] = Homo sapiens, PBMC, 10 min, visible light, 10 min
[15] = Homo sapiens, PBMC, 20 min, visible light, 20 min
[16] = Homo sapiens, PBMC, 0.5 h, visible light, 30 min
[17] = Homo sapiens, PBMC, UV-A, 0.5 J/sc
[18] = Homo sapiens, PBMC, UV-A, 1 J/sc
[19] = Homo sapiens, PBMC, UV-A, 2 J/sc
[20] = Homo sapiens, PBMC, not illuminated

Row | SMILES | percentage of PBMC which underwent apoptosis ([2]; 1 μM, UV-A 2 J/cm^2) [percentage] | percentage of PBMC which underwent apoptosis ([2]; 1 μM, no light) [percentage] | percentage of PBMC which underwent apoptosis ([2]; 1 μM, visible light 20 min) [percentage] | percentage of PBMC which underwent apoptosis ([2]; 10 μM, UV-A 2 J/cm^2) [percentage] | percentage of PBMC which underwent apoptosis ([2]; 10 μM, no light) [percentage] | percentage of PBMC which underwent apoptosis ([2]; 10 μM, visible light 20 min) [percentage] | capability of inducing apoptosis [2] | IC50 [3, 14] [µM] | IC50 [3, 15] [µM] | IC50 [3, 16] [µM] | IC50 [3, 17] [µM] | IC50 [3, 18] [µM] | IC50 [3, 19] [µM] | IC50 [3, 20] [µM] | ability to inhibit proliferation, 2 vs 1 J/cm^2 [3] | effect of UV-A on ability to inhibit proliferation [3] | effect of visible light on ability to inhibit proliferation [3] | other results
1 | COc1c2occc2cc2ccc(=O)oc12 [8-MOP, 8-methoxypsoralen] | 22.9 | 3.8 | 13.7 | 63.0 | 6.8 | 15.3 | not 8-MOP, is capable of inducing apoptosis in both normal and malignant leukocytes | 18.7 | 17.3 | 18.9 | 4.2 | 1.6 | 0.7 | 19.4 | roughly doubled | enhanced significantly upon illumination using UV-A light | not enhanced upon illumination using visible light | illumination-dependent inhibition of proliferation [1]: No illumination-dependent inhibition of proliferation
2 | Cc1cc(O)c2c(=O)c3c(O)cc(O)c4c5c(O)cc(O)c6c(=O)c7c(O)cc(C)c8c1c2c(c34)c(c78)c65 [hypericin, 1,3,4,6,8,13-Hexahydroxy-10,11,dimethyl-phenanthro[1,10,9,8,-opqra]perylene-7,14-dione] | 21.2 | 4.8 | 18.2 | 37.3 | 5.4 | 87.9 | capable of inducing apoptosis in both normal and malignant leukocytes | 3.2 | 1.8 | 0.75 | 3.7 | 2.1 | 2 | 36 | essentially the same | enhanced significantly upon illumination using UV-A light | enhanced significantly upon illumination using visible light | singlet oxygen production [4]: produce singlet oxygen; inhibition of proliferation [5]: incapable of inhibiting proliferation of leukemia cells; presence in skin ([6]; after systemic administration): demonstrated in skin after systemic administration; presence in blood plasma ([6]; following administration to mammals): remains in the blood plasma; half life ([6]; in vivo): 20 to 24 h; absorbance maximum [7]: 327 nm and 563 nm and 603 nm; effect on leukocytes [8]: no effect of hypericin on leukocytes; effect of light on antiproliferative effects [9]: only slightly enhance hypericin's antiproliferative effects on glioma cells; protein kinase inhibition [10]: inhibits protein kinase activity; IC100 ([3]; Homo sapiens, PBMC, 72 h, visible light, 30 min, read-out: concentration at which proliferation was completely inhibited): 3.2 µM; inhibition of proliferation after 30 min illumination ([3]; visible light, 30 vs 10 or 20 min): greater than that which resulted from illumination for a period of 10 or 20 minutes; effect on enveloped virus [11]: reduce the infectious titer of the enveloped virus, but did not inactivate the virus; inactivation of viruses in blood compositions [12]: could be used to inactivate viruses in blood compositions in vitro; inhibition of proliferation of xenografted carcinoma cells [13]: inhibited proliferation of these carcinoma cells
